The results in this text go back to patent US20220145265A1, “IN VITRO EQUINE MODEL SYSTEMS AND THEIR INTEGRATION INTO HORSE-ON-A-CHIP PLATFORM” (University of Kentucky Research Foundation, priority 2020, published 2022).

For one data set, the system named is CYP3A89. From the text: FIG. 5A-51I. Development of an equine intestine-on-a-chip. FIG. 5A: Schematic representation of equine intestine-on-a-chip, including the top view of the Emulate chip (left), and a vertical slice (right) showing the epithelial channel (1, blue), the microvasculature channel (2, pink), and microchannels populated by organoid-derived intestinal epithelial cells (3) and endothelial cells (4), separated by flexible, porous membrane coated by extracellular matrices (5). FIG. 5B: Brightfield image of an equine intestine-chip cultured for 12 days in the presence of fluid flow and stretch (30 μl/h flow, 10% strain, 0.2 Hz). FIG. 5C: High magnification, phase contrast image of the intestinal epithelium channel depicted in b. […] FIG. 5E: Intestinal epithelium height measured in situ over a 400 μm section of the intestine-chip depicted in b. […] FIG. 5G: qPCR analysis of transcripts associated with intestine cell differentiation in organ-chips compared to 3D enteroid culture. (FIG. 5H: Testosterone conversion by epithelial CYP3A89 in equine intestine-chips was monitored by LC-MS/MS. Graph depicts the percent conversion of testosterone to 6-hydroxytestosterone at two concentrations. Scale bar represents 100 μm in panels 5B, 5C, 5D, and 5F. Schematic in 5A adapted and modified from Kasendra et al., eLife 2020.
Finally, studies were performed to evaluate the suitability of intestine chips for drug metabolism and CYP3A89 (CYP3A4 homolog (24)) induction. For these experiments, we inoculated testosterone into the inlet reservoir for the epithelial channel, flowed the testosterone-containing media through the chip at a rate of 30 μl/h, and collected samples from the effluent chambers from both the epithelial and vasculature channels.

The subject of data set [1] is cellular esterase(s). Description: Ciclesonide pro-drug hydrolysis to des-CIC in equine airway (bronchioalveolar) organoid-derived transwells. Type of data set: in vitro ADME. Particulars: 50 μM or 500 μM Ciclesonide, over time. The text has this:
(§1) FIG. 10A-10E. Identification and quantification of Ciclesonide metabolites produced by equine airway and hepatic organoid-derived tissue systems. FIG. 10A includes the structure of Ciclesonide, which is a pro-drug that is metabolized in the lungs to the active form, desisobutyryl-Ciclesonide (des-CIC). FIG. 10B includes MS spectra showing representative fragmentation pattern of kinetic des-CIC conversion from CIC hydrolysis generated by equine bronchioalveolar organoid-derived transwells treated with pro-drug. FIGS. 10C-10D plot quantification of des-CIC metabolite produced by equine airway organoid-derived transwells treated with 50 μM (FIG. 10C) or 500 μM (FIG. 10D) Ciclesonide as a function of time. FIG. 10E plots quantification of des-CIC metabolite produced by equine hepatic organoid-derived transwells treated with 500 μM Ciclesonide as a function of time. […]
FIG. 10B, includes representative fragmentation pattern of kinetic des-CIC conversion from CIC hydrolysis generated by equine bronchioalveolar organoid-derived transwells treated with pro-drug. […] Quantification of des-CIC metabolite produced by equine airway organoid-derived transwells treated with 50 μM (FIG. 10C) or 500 μM (FIG. 10D) Ciclesonide over time. […]

Data set [2] concerns cellular esterase(s). Description: Ciclesonide pro-drug hydrolysis to des-CIC in equine hepatic organoid-derived transwells. Type of data set: in vitro ADME. The note with it: 500 μM Ciclesonide, over time.
Text: as §1
Apical samples were obtained from the transwell upper chamber containing the bronchioalveolar tissue; basolateral samples were obtained from the lower transwell chamber containing untreated medium. FIG. 10E includes the results of quantification of des-CIC metabolite produced by equine hepatic organoid-derived transwells treated with 500 μM Ciclesonide. […]

For the compound `C[C@]12CC[C@H]3[C@@H](CCC4=CC(=O)CC[C@@]43C)[C@@H]1CC[C@@H]2O` [testosterone], the “channel in which testosterone metabolites were detected” value in the data set on CYP3A89 is listed as “detected only in the epithelial channel effluent”. For the same compound, the “time by which CYP3A89-mediated conversion of testosterone to 6-hydroxytestosterone was revealed” value in the data set with CYP3A89 (equine intestine-chip, flow 30 μl/h, effluent samples, post-treatment) is given as at most 1 h. The “time of peak testosterone metabolism” value in the data set with CYP3A89 (horse) is recorded as “roughly 3 h”.

Regarding `CC(C)C(=O)OCC(=O)[C@@]12O[C@H](C3CCCCC3)O[C@@H]1C[C@H]1[C@@H]3CCC4=CC(=O)C=C[C@]4(C)[C@H]3[C@@H](O)C[C@@]12C` [Ciclesonide], the “pro-drug hydrolysis to desisobutyryl-Ciclesonide (kinetics in words)” value is “rapid and linear” in the data set on cellular esterase(s) [1]; “rapid and linear” in the data set with cellular esterase(s) [2].
